How the values were obtained:
[1] = system: conditioned avoidance response in rats; experiment: Conditioned avoidance response in rats; format: in vivo, rat; settings: rats
From the text: In the conditioned avoidance response (CAR) model, rats are trained to respond to a stimulus within a fixed time by moving from one place to another in order to avoid a footshock. Antipsychotics selectively suppress the avoidance response within a certain dose-range without suppressing escape behavior elicited by the appearance of the footshock. The CAR model is considered to be a predictive and reliable animal model that is sensitive to compounds with an antipsychotic potential.
Subjects. Male Wistar rats (Taconic, Denmark) weighing 150 g at the beginning of the study are used. The rats are housed ii pairs and maintained on a 12 h light/dark cycle (lights on 06:00). The animals are fed once daily (approx. 6 pellets/rat) in order to keep the rats at 80% of their free-feeding weight. Water is available ad libitum. Temperature (21±1° C.) and relative humidity (55±5%) are automatically controlled.
Experimental procedure. Conditioned avoidance testing is conducted using four automated shuttle-boxes (ENV-010M, MED-Associates) each placed in a sound-attenuated chamber. Each box is divided into two compartments by a partition with an opening. The position of the animal and crossings from one compartment to the other are detected by two photocells placed on either side of the dividing wall. Upon presentation of the conditioned stimuli (CS), tone and light, the animals have 10 s to cross to the other compartment of the shuttle-box in order to turn the CS off (end the trial) and avoid the appearance of the unconditioned stimulus (UCS). If the rat remains in the same compartment for more than 10 s, the UCS is presented as 0.5 mA scrambled foot-shocks until escape is performed or 10 s in maximal duration. The following behavioural variables are evaluated: avoidance (response to CS within 10 s); escape (response to CS+UCS); escape failures (failure to respond); intertrial crosses and locomotor activity. The rats are habituated to the shuttle-box 3 min before each test session. During training each test session consists of 30 trials with intertrial intervals varying randomly between 20 s and 30 s. Training is carried until the rats display an avoidance of 80% or more, on 3 consecutive days. A test is preceded by a pre-test the day before giving rise to a baseline value for each animal, thus the animals serve as their own control. Seven to eight rats are used at each dose level. A parallel control group receiving the vehicle of the test compound is also included.
Administration of compound.
Statistical analyses. The effects of compounds on avoidance and escape failure behaviours were statistically evaluated by means of a two-way repeated measures ANOVA followed by post hoc comparisons (Student-Newman-Keuls Method) when appropriate. P-levels <0.05 were considered statistically significant.

[2] = system: dopaminergic neurons in the ventral tegmental area; settings: ex vivo (Hansen et al. 2005); cited from earlier work
[3] = system: incidence of seizures in epileptic patients; settings: clinical trials (Bialer et al. 2002); cited from earlier work
[4] = Inhibition of baseline motility in vehicle-pretreated, vehicle-challenged mice; settings: NMRI, mouse, in vivo
[5] = system: DA levels in the nucleus accumbens; experiment: Microdialysis: DA levels in the nucleus accumbens of freely moving rats; format: in vivo, rat; settings: 8.1 mg/kg s.c.
From the text: It is well-known that psychostimulants increase locomotor activity via an increase in extracellular DA levels in the nucleus accumbens, which is the terminal area of the mesolimbic DA projections (Guix et al., 1992, Neurosci. Lett., 138(1), 137-140; Moghaddam et al., 1989, Synapse, 4(2), 156-161). It is also known, that the antagonistic effect of antipsychotics on stimulant-induced hyperlocomotion is related to the effect of antipsychotics to inhibit the stimulated DA levels in the nucleus accumbens (Broderick et al., 2004, Prog. Neuropsychopharmacology and Biol. Psych., 28, 157-171). Thus, the nucleus accumbens is an accepted neuroanatomical site for testing reversal of positive symptoms of psychosis. […] The experiments were conducted such that the data may be associated with the behavioural data obtained above.
Subjects. Male Sprague-Dawley rats (Charles River), initially weighing 275-300 g, were used. The animals were housed under a 12-hr light/dark cycle under controlled conditions for regular in-door temperature (21±2° C.) and humidity (55±5%) with food and tap water available ad libitum.
Surgery. Animals were anaesthetized with hypnorm/dormicum (2 ml/kg s.c.) and intracerebral guide cannulas (CMA/12) were stereotaxically implanted, positioning the dialysis probe tip in the nucleus accumbens (co-ordinates: […] anterior to bregma, —1.2 mm lateral to bregma, 8.0 mm ventral to the dura). Anchor screws and acrylic cement was applied for fixation of the guide cannula. The body temperature of the animals was maintained at 37° C. by means of a rectal probe and a heating plate. The rats were allowed to recover from surgery for 2 days, housed singly in cages.
Experimental procedure. On the day of the experiment, a microdialysis probe (CMA/12, 0.5 mm diameter, 2 mm length) was inserted through the guide cannula of the conscious animal. The probes were connected to a microinjection pump via a dual channel swivel which allowed the animals unrestricted movements. Perfusion of the microdialysis probe with filtered Ringer solution (145 mM NaCl, 3 mM KCl, 1 mM MgCl2, 1.2 mM CaCl2) was maintained for the duration of the experiment at a constant flow rate of 1 μL/min. After 180 min of stabilisation, the experiments were initiated. Dialysates were collected every 20 min. After the experiments the rats were sacrificed by decapitation, their brains removed, frozen and sliced for probe placement verification.
Administration of compounds. […] Thirty min after the first administration dex-amphetamine sulphate (0.5 mg/kg s.c.) was administered.
Analysis of dialysate. The concentration of dopamine (DA) in the dialysates was assessed by means of HPLC with electrochemical detection. The dialysate constitutents were separated by reverse phase liquid chromatography (ODS 150×3 mm, […]). Mobile phase consisted of 90 mM NaH2PO4, 50 mM sodium citrate, 367 mg/l sodium 1-octanesulfonic acid, 50 μM EDTA and 8% acetonitrile (pH 4.0) at a flow rate of 0.5 ml/min. Electrochemical detection of DA was accomplished using a coulometric detector; potential set at E1=−75 mV and E2=300 mV (guard cell at 350 mV) (Coulochem II, ESA). The dialysate levels of DA in the three dialyse samples preceding the administration of compound were averaged and used as baseline level of DA (100%)

With `CCOC(=O)Nc1ccc(NCc2ccc(F)cc2)cc1N` the “% inhibition of avoidance. Relative to baseline.” value ([1]; 5 mg/kg s.c. 30 min before the test) was 1%, the “% inhibition of avoidance. Relative to baseline.” value ([1]; 10 mg/kg s.c. 30 min before the test) was 59% and the “Escape failures (effect on motor performance)” value ([1]; all tested doses, data not shown) was “None of the tested doses caused any incidences of escape failures”. The “Firing of dopaminergic neurons in the ventral tegmental area” value [2] was “suppress the firing of dopaminergic neurons in the ventral tegmental area ex vivo”, the “Incidence of seizures in epileptic patients” value [3] was “shown effectiveness in reducing the incidence of seizures in epileptic patients” and the ED50 at 30 min [4] was 7.6 mg/kg. For the same compound, the “DA level in the nucleus accumbens, amphetamine + compound” value (“DA level in the nucleus accumbens” below) ([5]; time 0 min, freely moving rats) was 96 ± 6 % of baseline, the “DA level in the nucleus accumbens” value ([5]; time 20 min, amphetamine 0.5 mg/kg s.c. 30 min after compound) was 160 ± 11 % of baseline and the “DA level in the nucleus accumbens” value ([5]; time 40 min, amphetamine 0.5 mg/kg s.c. 30 min after compound) was 241 ± 33 % of baseline. For the same compound, the “DA level in the nucleus accumbens” value ([5]; time 60 min, amphetamine 0.5 mg/kg s.c. 30 min after compound) was 221 ± 26 % of baseline, the “DA level in the nucleus accumbens” value ([5]; time 80 min, amphetamine 0.5 mg/kg s.c. 30 min after compound) was 217 ± 14 % of baseline and the “DA level in the nucleus accumbens” value ([5]; time 100 min, amphetamine 0.5 mg/kg s.c. 30 min after compound) was 173 ± 9 % of baseline. For the same compound, the “DA level in the nucleus accumbens” value ([5]; time 120 min, amphetamine 0.5 mg/kg s.c. 30 min after compound) was 139 ± 9 % of baseline, the “DA level in the nucleus accumbens” value ([5]; time 140 min, amphetamine 0.5 mg/kg s.c. 30 min after compound) was 120 ± 9 % of baseline and the “DA level in the nucleus accumbens” value ([5]; time −20 min, freely moving rats) was 99 ± 6 % of baseline. The “DA level in the nucleus accumbens” value ([5]; time −40 min, freely moving rats) was 105 ± 3 % of baseline.

— patent US20090118285A1, “USE OF KCNQ-OPENERS FOR TREATING OR REDUCING THE SYMPTOMS OF SCHIZOPHRENIA” (H. Lundbeck A/S, priority 2006, published 2009)
